Target: T1, PI3Kα H1047R (T47D cells) (Homo sapiens, UniProt P42336, H1047R)
T1 construct: endogenous in cells; host or cells: T47D cells
Assay: PI3Kα cellular assay: pAKT HTRF in T47D cells after EGF stimulation
Format: cell-based
Details: for IC50: T47D cells (PI3Kα H1047R), pAKT S473 HTRF, EGF stimulation; for T47D pAKT S473 HTRF IC50 (H1047R): T47D (H1047R) selectivity over SKBR3 (WT): selectivity of T47D (H1047R) over SKBR3 (WT) pAKT IC50
Procedure, shortened: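 T47D cells (PIK3CA H1047R) serum-starved 16 h, then treated 1 h at 37 °C with compound (10,000 nM top, 3-fold steps to 0.5 nM). After 10 min stimulation with 20 ng/mL EGF, cells were lysed and pAKT measured by HTRF.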

T1 sequence (P42336 whole entry H1047R): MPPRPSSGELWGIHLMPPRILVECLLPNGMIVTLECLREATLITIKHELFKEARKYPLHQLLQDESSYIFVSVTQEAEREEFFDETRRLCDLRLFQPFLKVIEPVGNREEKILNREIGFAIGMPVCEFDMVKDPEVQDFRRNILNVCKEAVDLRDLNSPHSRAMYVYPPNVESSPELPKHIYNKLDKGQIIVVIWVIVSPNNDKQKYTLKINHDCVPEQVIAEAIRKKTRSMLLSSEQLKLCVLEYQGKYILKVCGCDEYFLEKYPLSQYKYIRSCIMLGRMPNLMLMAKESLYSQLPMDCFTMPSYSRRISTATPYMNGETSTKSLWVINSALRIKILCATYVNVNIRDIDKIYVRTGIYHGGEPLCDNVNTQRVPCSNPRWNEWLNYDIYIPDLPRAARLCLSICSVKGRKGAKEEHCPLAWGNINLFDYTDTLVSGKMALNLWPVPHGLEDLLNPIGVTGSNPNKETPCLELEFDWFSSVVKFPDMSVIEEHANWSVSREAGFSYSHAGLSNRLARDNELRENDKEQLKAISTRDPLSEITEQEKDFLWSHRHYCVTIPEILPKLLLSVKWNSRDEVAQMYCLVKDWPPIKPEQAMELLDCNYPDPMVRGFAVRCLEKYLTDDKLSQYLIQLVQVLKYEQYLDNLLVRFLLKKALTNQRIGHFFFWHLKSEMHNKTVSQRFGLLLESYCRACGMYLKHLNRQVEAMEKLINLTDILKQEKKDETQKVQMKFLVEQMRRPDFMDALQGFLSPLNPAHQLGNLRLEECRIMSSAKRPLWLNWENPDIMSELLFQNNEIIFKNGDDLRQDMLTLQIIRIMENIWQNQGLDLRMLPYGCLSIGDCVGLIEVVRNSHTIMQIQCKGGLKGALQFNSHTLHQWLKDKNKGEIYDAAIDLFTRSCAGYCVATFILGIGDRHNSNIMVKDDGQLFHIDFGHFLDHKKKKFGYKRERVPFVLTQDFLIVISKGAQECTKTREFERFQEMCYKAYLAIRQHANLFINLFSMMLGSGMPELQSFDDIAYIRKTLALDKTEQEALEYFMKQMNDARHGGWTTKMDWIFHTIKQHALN
T1 sequence (P27986 whole entry partner): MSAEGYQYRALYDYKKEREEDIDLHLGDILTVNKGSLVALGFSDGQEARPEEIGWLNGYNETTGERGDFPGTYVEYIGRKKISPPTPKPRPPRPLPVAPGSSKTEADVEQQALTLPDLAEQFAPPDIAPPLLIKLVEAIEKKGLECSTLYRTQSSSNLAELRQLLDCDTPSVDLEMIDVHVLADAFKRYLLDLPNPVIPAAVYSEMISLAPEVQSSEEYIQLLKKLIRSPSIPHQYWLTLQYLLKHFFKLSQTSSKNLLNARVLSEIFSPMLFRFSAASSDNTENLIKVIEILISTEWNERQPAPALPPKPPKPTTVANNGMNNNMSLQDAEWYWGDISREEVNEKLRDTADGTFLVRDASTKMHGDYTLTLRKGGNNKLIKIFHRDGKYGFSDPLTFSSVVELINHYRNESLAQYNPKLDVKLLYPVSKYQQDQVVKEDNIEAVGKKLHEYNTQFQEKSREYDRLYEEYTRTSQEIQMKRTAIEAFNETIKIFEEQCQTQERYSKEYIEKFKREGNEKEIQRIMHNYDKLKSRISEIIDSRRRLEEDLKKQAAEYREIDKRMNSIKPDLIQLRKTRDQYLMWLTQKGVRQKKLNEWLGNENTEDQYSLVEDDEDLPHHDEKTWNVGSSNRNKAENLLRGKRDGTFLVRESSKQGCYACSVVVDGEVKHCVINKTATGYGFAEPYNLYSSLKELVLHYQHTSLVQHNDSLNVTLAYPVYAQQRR

SMILES | IC50 [µM] | T47D pAKT S473 HTRF IC50 (H1047R): T47D (H1047R) selectivity over SKBR3 (WT)
CC(=O)Nc1nn(C)c2ccc(-c3cc(=O)n4cc(C)cc([C@@H](C)Nc5ccccc5C(=O)O)c4n3)cc12 [Compound 793] | > 2 | C (C denotes ≤5-fold)
C=C(C)Nc1nn(C)c2ccc(-c3cc(=O)n4cc(C)cc([C@H](C)Nc5ccccc5C(=O)O)c4n3)cc12 [Compound 794] | 0.1 to 0.5 | A (A denotes >20-fold)
C=C(C)N1CCC([C@@H]2C[C@@H]3CN(c4cc(=O)n5cc(C)cc([C@H](C)Nc6ccccc6C(=O)O)c5n4)C[C@@H]3C2)CC1 [Compound 796] | > 2 | C (C denotes ≤5-fold)
Cc1cc(C(C)Nc2ccccc2C(=O)O)c2nc(-n3cnc4ccc(O)cc43)cc(=O)n2c1 (centres unmarked) [Compound 799] | > 2 | C (C denotes ≤5-fold)
Cc1cc(C(C)Nc2ccccc2C(=O)O)c2nc(-n3cnc4ccc(O)cc43)cc(=O)n2c1 (centres unmarked) [Compound 801] | > 2 | C (C denotes ≤5-fold)
Cc1cc([C@@H](C)Nc2cccc3nonc23)c2nc(N3CCOCC3)cc(=O)n2c1 [Compound 802] | > 2 | C (C denotes ≤5-fold)
Cc1cc(CCNc2ccc(F)cc2C(=O)O)c2nc(N3CCOCC3)cc(=O)n2c1 [Compound 806] | > 2 | C (C denotes ≤5-fold)
Cc1cc([C@@H](C)Nc2ccccc2C(=O)O)c2nc(-c3ccc4snc(N)c4c3)cc(=O)n2c1 [Compound 809] | < 0.1 | A (A denotes >20-fold)
Cc1cc([C@H](C)Nc2ccccc2C(=O)O)c2nc(-c3ccc4snc(N)c4c3)cc(=O)n2c1 [Compound 810] | > 2 | C (C denotes ≤5-fold)
Cc1cc([C@H](C)Nc2ccccc2C(=O)O)c2nc(-c3cc4c(cc3C)CC(N)=N4)cc(=O)n2c1 [Compound 811] | 0.5 to 2 | B (B denotes 20-fold≥value>5-fold)
Cc1cc(C(C)Nc2ccccc2C(=O)O)c2nc(-c3c(C)ccc4[nH]ncc34)c(C)c(=O)n2c1 (centres unmarked) [Compound 813] | > 2 | C (C denotes ≤5-fold)
Cc1cc([C@H](C)Nc2ccccc2C(=O)O)c2nc(-c3c(C)ccc4[nH]ncc34)cc(=O)n2c1 [Compound 814] | > 2 | C (C denotes ≤5-fold)
Cc1cc(C(C)Nc2ccccc2C(=O)O)c2nc(-c3c(C)ccc4c3cnn4C)cc(=O)n2c1 (centres unmarked) [Compound 817] | > 2 | C (C denotes ≤5-fold)
Cc1cc([C@@H](C)Nc2ccccc2C(=O)O)c2nc(-c3ccc4c(C)nn(C)c4c3)cc(=O)n2c1 [Compound 819] | < 0.1 | A (A denotes >20-fold)
Cc1cc([C@H](C)Nc2ccccc2C(=O)O)c2nc(-c3ccc4c(C)nn(C)c4c3)cc(=O)n2c1 [Compound 820] | – | C (C denotes ≤5-fold)
Cc1cc(C(C)Nc2ccccc2C(=O)O)c2nc(-c3ccc4c(c3)CC(F)(F)C4)cc(=O)n2c1 (centres unmarked) [Compound 821] | 0.1 to 0.5 | A (A denotes >20-fold)
CC(=O)N=S(C)(=O)c1ccccc1N[C@@H](C)c1cc(C)cn2c(=O)cc(N3CCOCC3)nc12 (some centres unmarked) [Compound 828] | 0.5 to 2 | B (B denotes 20-fold≥value>5-fold)
Cc1cc(C(C)Nc2ccccc2C(=O)O)c2nc(-c3ccc4c(c3)CC(F)(F)C4)c(C)c(=O)n2c1 (centres unmarked) [Compound 833] | 0.1 to 0.5 | A (A denotes >20-fold)
Cc1cc(C(C)NC2CCN(S(=O)(=O)N(C)C)C2)c2nc(N3Cc4ccccc4C3)cc(=O)n2c1 (centres unmarked) [Compound 834] | > 2 | C (C denotes ≤5-fold)
CNS(=O)(=O)c1ccccc1NC(C)c1cc(C)cn2c(=O)cc(N3Cc4ccccc4C3)nc12 (centres unmarked) [Compound 835] | 0.1 to 0.5 | A (A denotes >20-fold)
Cc1cc(C(C)N(C)c2ccccc2S(N)(=O)=O)c2nc(N3Cc4ccccc4C3)cc(=O)n2c1 (centres unmarked) [Compound 836] | > 2 | C (C denotes ≤5-fold)
Cc1cc(C(C)Nc2ccccc2C(=O)O)c2nc(N3C[C@H]4C[C@@H](C5CCN(S(=O)(=O)N(C)C)CC5)C[C@H]4C3)cc(=O)n2c1 (some centres unmarked) [Compound 844] | 0.5 to 2 | B (B denotes 20-fold≥value>5-fold)
Cc1cc([C@@H](C)Nc2ccccc2C(=O)O)c2nc(N3CC4CC(F)(F)CC4C3)c(C)c(=O)n2c1 (some centres unmarked) [Compound 849] | 0.1 to 0.5 | A (A denotes >20-fold)
Cc1cc([C@H](C)Nc2ccccc2C(=O)O)c2nc(N3CC4CC(F)(F)CC4C3)c(C)c(=O)n2c1 (some centres unmarked) [Compound 850] | > 2 | C (C denotes ≤5-fold)

Now from value to molecule:

IC50 [µM] | T47D pAKT S473 HTRF IC50 (H1047R): T47D (H1047R) selectivity over SKBR3 (WT) | SMILES
> 2 | C (C denotes ≤5-fold) | Cc1cc([C@@H](C)Nc2ccccc2C(=O)O)c2nc(-c3ccc4c(c3)c(C)cn4C)cc(=O)n2c1 [Compound 797]
< 0.1 | A (A denotes >20-fold) | Cc1cc([C@H](C)Nc2ccccc2C(=O)O)c2nc(-c3ccc4c(c3)c(C)cn4C)cc(=O)n2c1 [Compound 798]
> 2 | C (C denotes ≤5-fold) | Cc1cc([C@H](C)Nc2ccccc2C(=O)O)c2nc(-c3cnc4c(c3)c(C)c(C)n4C)c(C)c(=O)n2c1 [Compound 805]
> 2 | C (C denotes ≤5-fold) | Cc1cc([C@H](C)Nc2ccccc2C(=O)O)c2nc(-c3ccc4c(c3)c(C(F)F)nn4C)cc(=O)n2c1 [Compound 808]
> 2 | C (C denotes ≤5-fold) | Cc1cc([C@H](C)Nc2ccccc2C(=O)O)c2nc(-c3cnc4cc(O)ccn34)cc(=O)n2c1 [Compound 812]
> 2 | C (C denotes ≤5-fold) | Cc1cc([C@H](C)Nc2ccccc2C(=O)O)c2nc(-c3c(C)ccc4c3cnn4C)cc(=O)n2c1 [Compound 815]
> 2 | C (C denotes ≤5-fold) | Cc1cc([C@@H](C)Nc2ccccc2C(=O)O)c2nc(-c3c(C)ccc4c3cnn4C)cc(=O)n2c1 [Compound 816]
< 0.1 | A (A denotes >20-fold) | Cc1cc(C(C)Nc2ccccc2C(=O)O)c2nc(-c3ccc4c(C)nn(C)c4c3)cc(=O)n2c1 (centres unmarked) [Compound 818]
< 0.1 | A (A denotes >20-fold) | Cc1cc([C@@H](C)Nc2ccccc2C(=O)O)c2nc(-c3ccc4c(c3)CC(F)(F)C4)cc(=O)n2c1 [Compound 822]
> 2 | C (C denotes ≤5-fold) | Cc1cc([C@H](C)Nc2ccccc2C(=O)O)c2nc(-c3ccc4c(c3)CC(F)(F)C4)cc(=O)n2c1 [Compound 823]
0.5 to 2 | B (B denotes 20-fold≥value>5-fold) | Cc1cc([C@@H](C)Nc2ccccc2C(=O)O)c2nc(-n3cnc4ccc(O)cc43)cc(=O)n2c1 [Compound 826]
> 2 | C (C denotes ≤5-fold) | CC(=O)N=S(C)(=O)c1ccccc1N[C@H](C)c1cc(C)cn2c(=O)cc(N3CCOCC3)nc12 (some centres unmarked) [Compound 827]
> 2 | C (C denotes ≤5-fold) | CCC(=O)N=S(C)(=O)c1ccccc1N[C@@H](C)c1cc(C)cn2c(=O)cc(N3CCOCC3)nc12 (some centres unmarked) [Compound 829]
0.5 to 2 | B (B denotes 20-fold≥value>5-fold) | Cc1cc(C(C)Nc2ccccc2-c2ccnnc2)c2nc(N3Cc4ccccc4C3)c(C3CC3)c(=O)n2c1 (centres unmarked) [Compound 832]
> 2 | C (C denotes ≤5-fold) | C=CC(=O)Nc1ccc(C(=O)O)c(NC(C)c2cc(C)cn3c(=O)cc(N4Cc5ccccc5C4)nc23)c1 (centres unmarked) [Compound 840]
– | C (C denotes ≤5-fold) | Cc1cc([C@@H](C)Nc2ccccc2C(=O)O)c2nc(-c3ccc4[nH]nc(C)c4c3)cc(=O)n2c1 [Compound 841]
– | B (B denotes 20-fold≥value>5-fold) | Cc1cc(C(C)Nc2ccccc2C(=O)O)c2nc(N3C[C@H]4C[C@@H](C5CCN(S(C)(=O)=O)CC5)C[C@H]4C3)cc(=O)n2c1 (some centres unmarked) [Compound 843]
> 2 | C (C denotes ≤5-fold) | Cc1cc([C@@H](C)Nc2ccccc2-c2ccnnc2)c2nc(N3Cc4ccccc4C3)c(C3CC3)c(=O)n2c1 [Compound 847]
< 0.1 | A (A denotes >20-fold) | Cc1cc([C@@H](C)Nc2ccccc2C(=O)O)c2nc(-c3ccc4c(c3)COC4)cc(=O)n2c1 [Compound 851]
– | C (C denotes ≤5-fold) | Cc1cc([C@H](C)Nc2ccccc2C(=O)O)c2nc(-c3ccc4c(c3)COC4)cc(=O)n2c1 [Compound 852]
< 0.1 | A (A denotes >20-fold) | Cc1cc([C@@H](C)Nc2ccccc2C(=O)O)c2nc(-c3ccc4c(c3)CC(F)(F)C4)c(C)c(=O)n2c1 [Compound 853]

Reference: patent publication US20260132129A1 (Genesis Therapeutics, Inc., priority 2022, published 2026)
